Experimental data reported in paper PMC10644391, “Targeted Reversible Covalent Modification of a Noncatalytic Lysine of the Krev Interaction Trapped 1 Protein Enables Site-Directed Screening for Protein–Protein Interaction Inhibitors” (ACS Pharmacology & Translational Science, 2023).
Several values for one entry are separate records, joined by “and”; a condition that tells them apart may be missing. Identical values can stand only once.

biological target: T1, HEG1-KRIT1 PPI (Homo sapiens, UniProt O00522); assay: HEG1-KRIT1 PPI fluorescence polarization (FP) time-resolved assay; type: biochemical; conditions: fluorescence polarization assay after 4 h of incubation; means ± SD, n = 3
T1 construct: a recombinant FERM domain (residues 417–736) of KRIT1; made in house; host or cells: E. coli
Procedure: To evaluate the binding kinetics of HNA inhibitors, a fluorescence polarization (FP) time-resolved assay that uses a recombinant FERM domain (residues 417–736) of KRIT1 and a fluorescence-tagged HEG1 cytoplasmic tail (Cy5-HEG1 7-mer peptide) was developed (Supporting Information). Using HNA as a test compound, the FP data, expressed as millipolarization (mP) units, were obtained every 10 min over the course of 4–7 h. […] Thus, for practical purposes, a 4-h incubation time was established as the standard assay time for non-kinetic IC50 evaluations.
Fluorescence Polarization Assay and Optimization
The KRIT1 FERM domain (residues 417-736) was cloned into plasmid and recombinantly expressed in E. coli as previously described,1 while the Cy5-HEG1 7- mer peptide bearing the Cy5 dye as fluorescent probe was prepared by and purchased from GenScript (New Jersey, US). HEPES- buffered saline (HBS) buffer was supplemented (0.01%) with detergent Triton X -100 to minimize protein adsorption to the microplate. The assay was setup in a 96-well plate plated with 80 nM KRIT1, 4 nM Cy5- HEG1 probe, and either non-tagged HEG1 peptide or HNA as inhibitor (in 5% DMSO). To account for background fluorescence that could interfere with the assay, background wells with only test compound and Cy5 -HEG1 probe (no KRIT1) were also plated. The FP data, expressed as millipolarization (mP) units, were obtained […]
course of 4-7 hours (for kinetic characterization) using a Tecan Spark® Multimode Microplate Reader. The background mP (no KRIT1) was subtracted from mP to account for background fluorescence. All assays were done in triplicates.
Several FP assay conditions were optimized. First, the HEG1 probe engagement of KRIT1 was examined and its interaction was determined to be rapid equilibrium, thus any observed time dependance in response when an inhibitor displaces the probe is the result of inhibitor exchange kinetics and not that of the probe. Next, the affinity of KRIT1 for the probe (Kd) was examined by following the change in polarization signal as a function of a matrix of five probe concentrations and four KRIT1 concentrations (Figure S1B ). A global fit of equation 3 to polarization responses of the inhibitor vs KRIT1 concentration […]
even after 7 hours of incubation. For practical purposes, we have chosen 4 hours as our standard incubation time since it appeared that most of the inhibition has been reached at this time point. The kinetic characterization of HNA as a HEG1- KRIT1 inhibitor will be discussed in greater detail in the kinetic section […]
values to those obtained from the flow cytometry assay. Finally, to assess the robustness of the FP assay, […]
a robust assay) representing an excellent assay with clear differences between positive and negative controls.2 Evaluation of HEG1-KRIT1 inhibitors prior to the optimization of the FP assay were done using flow cytometry, while subsequent compounds were evaluated using the FP assay. All subsequent assay plates included HNA as comparison and control.
Figure S1. Optimization of fluorescence polarization (FP) assay.
HEG1-KRIT1 inhibition. (B) Optimization of KRIT1 protein and Cy5 -HEG1 probe concentrations. Dose-response curve of HNA obtained via fluorescence polarization (C) and flow cytometry (D) assays show […]
All assays were tested in technical duplicates or triplicates in at least 2 different

T1 sequence (O00522 417-736): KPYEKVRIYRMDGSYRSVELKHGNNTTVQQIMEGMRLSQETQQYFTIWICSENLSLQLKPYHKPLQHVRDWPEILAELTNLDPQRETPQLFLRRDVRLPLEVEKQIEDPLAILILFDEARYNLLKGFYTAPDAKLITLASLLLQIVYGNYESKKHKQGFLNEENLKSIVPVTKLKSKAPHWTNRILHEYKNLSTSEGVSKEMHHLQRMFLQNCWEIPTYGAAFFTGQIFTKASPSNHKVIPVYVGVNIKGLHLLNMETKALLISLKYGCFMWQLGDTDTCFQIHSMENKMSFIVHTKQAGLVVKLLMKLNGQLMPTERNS

Compound | IC50
O=Cc1c(O)ccc2cc(-c3ccccc3)ccc12 [Compound 13] | 0.79 ± 0.24 µM
C=CCOc1ccc2c(C=O)c(O)ccc2c1 [Compound 9] | 2.75 ± 0.19 µM
O=Cc1c(O)ccc2cc(-c3c[nH]nn3)ccc12 [Compound 14] | 12 ± 1.09 µM
O=Cc1c(O)ccc2ccc(-c3cccs3)cc12 [Compound 16] | 0.24 ± 0.09 µM
O=Cc1c(O)ccc2cc(-c3ccsc3)ccc12 [Compound 15] | 1.18 ± 0.39 µM
O=Cc1c(O)ccc2cc(OC(F)F)ccc12 [Compound 10] | 2.21 ± 0.68 µM
O=Cc1c(O)ccc2cc(Cl)ccc12 [Compound 8] | 1.83 ± 0.82 µM
CC#Cc1ccc2c(C=O)c(O)ccc2c1 [Compound 12] | 1.42 ± 0.32 µM
C=CCc1ccc2c(C=O)c(O)ccc2c1 [Compound 7] | 1.22 ± 0.43 µM
O=Cc1c(O)ccc2ccc(-c3ccco3)cc12 [Compound 6] | 0.94 ± 0.12 µM
O=Cc1c(O)ccc2cc(-c3cccs3)ccc12 [Compound 4] | 0.47 ± 0.11 µM
CN(C)c1ccc2c(C=O)c(O)ccc2c1 [Compound 11] | 12.1 ± 4.61 µM

same assay, conditions: global fit across six or more inhibitor concentrations; means ± SD, n = 3

Compound | HEG1-KRIT1 PPI Assay kon | koff
O=Cc1c(O)ccc2cc(-c3ccccc3)ccc12 [Compound 13] | 112 ± 23.9 M⁻¹ s⁻¹ | 7.28e-05 s⁻¹
C=CCOc1ccc2c(C=O)c(O)ccc2c1 [Compound 9] | 24.6 ± 1.81 M⁻¹ s⁻¹ | 2.29e-05 s⁻¹
O=Cc1c(O)ccc2cc(-c3c[nH]nn3)ccc12 [Compound 14] | 4.58 M⁻¹ s⁻¹ and 4.58 ± 0.444 M⁻¹ s⁻¹ | 1.99e-05 s⁻¹
O=Cc1c(O)ccc2ccc(-c3cccs3)cc12 [Compound 16] | 232 ± 40.8 M⁻¹ s⁻¹ | 7.28e-05 s⁻¹
O=Cc1c(O)ccc2cc(-c3ccsc3)ccc12 [Compound 15] | 60.3 ± 7.5 M⁻¹ s⁻¹ | 5e-05 s⁻¹
O=Cc1c(O)ccc2cc(OC(F)F)ccc12 [Compound 10] | 29.7 ± 2.5 M⁻¹ s⁻¹ | 3.08e-05 s⁻¹
O=Cc1c(O)ccc2cc(Cl)ccc12 [Compound 8] | 35.6 ± 5 M⁻¹ s⁻¹ | 2.97e-05 s⁻¹
CC#Cc1ccc2c(C=O)c(O)ccc2c1 [Compound 12] | 43.1 ± 5.83 M⁻¹ s⁻¹ | 4.36e-05 s⁻¹
C=CCc1ccc2c(C=O)c(O)ccc2c1 [Compound 7] | 50.8 ± 5 M⁻¹ s⁻¹ | 3.19e-05 s⁻¹
O=Cc1c(O)ccc2ccc(-c3ccco3)cc12 [Compound 6] | 52.8 ± 9.17 M⁻¹ s⁻¹ | 4.97e-05 s⁻¹
O=Cc1c(O)ccc2cc(-c3cccs3)ccc12 [Compound 4] | 200 ± 30 M⁻¹ s⁻¹ | 0.000114 s⁻¹
CN(C)c1ccc2c(C=O)c(O)ccc2c1 [Compound 11] | 9.64 M⁻¹ s⁻¹ and 9.64 ± 2.08 M⁻¹ s⁻¹ | 0.00011 s⁻¹

same assay, conditions: global fit; means ± SD, n = 3; unit in Figure 2E; read-out: HEG1-KRIT1 PPI Assay Ki (koff/kon)

Compound | Ki
O=Cc1c(O)ccc2cc(-c3ccccc3)ccc12 [Compound 13] | 0.65 ± 0.24 µM
C=CCOc1ccc2c(C=O)c(O)ccc2c1 [Compound 9] | 0.93 ± 0.24 µM
O=Cc1c(O)ccc2cc(-c3c[nH]nn3)ccc12 [Compound 14] | 4.35 ± 1.77 µM
O=Cc1c(O)ccc2ccc(-c3cccs3)cc12 [Compound 16] | 0.31 ± 0.09 µM
O=Cc1c(O)ccc2cc(-c3ccsc3)ccc12 [Compound 15] | 0.83 ± 0.2 µM
O=Cc1c(O)ccc2cc(OC(F)F)ccc12 [Compound 10] | 1.03 ± 0.25 µM
O=Cc1c(O)ccc2cc(Cl)ccc12 [Compound 8] | 0.84 ± 0.33 µM
CC#Cc1ccc2c(C=O)c(O)ccc2c1 [Compound 12] | 1.01 ± 0.29 µM
C=CCc1ccc2c(C=O)c(O)ccc2c1 [Compound 7] | 0.63 ± 0.16 µM
O=Cc1c(O)ccc2ccc(-c3ccco3)cc12 [Compound 6] | 0.94 ± 0.32 µM
O=Cc1c(O)ccc2cc(-c3cccs3)ccc12 [Compound 4] | 0.57 ± 0.14 µM
CN(C)c1ccc2c(C=O)c(O)ccc2c1 [Compound 11] | 11.4 ± 4.08 µM

tested on: not listed separately; assay: HEK293 cytotoxicity, resazurin cell viability assay; type: cell-based; conditions: human, HEK293 cells, means ± SD, n = 3
Procedure: Maintenance of HEK293 Cells. HEK293 cell lines (American Type Culture Collection (ATCC)) were cultured in Dulbecco's Modified Eagle Medium (DMEM, Invitrogen) supplemented with 10% heat-inactivated fetal bovine serum (FBS, Gibco) and penicillin-streptomycin (1%). Cells were kept at 37 °C and 5% CO2, and were passaged every 72 hours.
Resazurin Cell Viability Assay. The cytotoxicity in HEK293 cells were determined using a resazurin cell viability assay. Test compounds in DMSO were diluted to 100x desired final assay concentration (maximum concentration of 100 µM) in eight-point dose response. 1 µL of test compounds were plated in a 96-well clear bottom tissue culture microplate. 49 µL of cell culture media was added to each well. Cells were diluted to 4 x 10^5 cells/mL, and 50 µL of this cell suspension was seeded to each well for a total of 2 x 10^4 cells/well. The assay plate was kept at 37 °C and 5% CO 2 for either 4 or 48 hours. At the end of the incubation time, 20 µL of 0.5 mM resazurin sodium salt (Alfa Aesar) solution in PBS was added to each well. The assay plates were incubated further at 37 °C for 2 hours. Fluorescence was measured at 531 nm and 595 nm excitation and emission wavelengths, respectively, using a 2104 EnVision® multilabel plate reader. CC50 values were obtained using sigmoidal curved generated with Prism GraphPad (San Diego, CA). SD values are reported as the standard deviation of the CC50 values of 3 biological replicates. All

Compound | CC50 at 48 h
O=Cc1c(O)ccc2cc(-c3ccccc3)ccc12 [Compound 13] | 43.5 ± 9.4 µM
C=CCOc1ccc2c(C=O)c(O)ccc2c1 [Compound 9] | 59.2 ± 12.9 µM
O=Cc1c(O)ccc2cc(-c3c[nH]nn3)ccc12 [Compound 14] | > 100 µM
O=Cc1c(O)ccc2ccc(-c3cccs3)cc12 [Compound 16] | 31.4 ± 4.2 µM
O=Cc1c(O)ccc2cc(-c3ccsc3)ccc12 [Compound 15] | 38.4 ± 6.1 µM
O=Cc1c(O)ccc2cc(OC(F)F)ccc12 [Compound 10] | > 100 µM
O=Cc1c(O)ccc2cc(Cl)ccc12 [Compound 8] | ~100 µM
CC#Cc1ccc2c(C=O)c(O)ccc2c1 [Compound 12] | ~100 µM
C=CCc1ccc2c(C=O)c(O)ccc2c1 [Compound 7] | 33.9 ± 5.4 µM
O=Cc1c(O)ccc2ccc(-c3ccco3)cc12 [Compound 6] | 41.2 ± 6.7 µM
O=Cc1c(O)ccc2cc(-c3cccs3)ccc12 [Compound 4] | 33.9 ± 0.7 µM
CN(C)c1ccc2c(C=O)c(O)ccc2c1 [Compound 11] | > 100 µM

tested on: not listed separately; assay: pKa by potentiometric titration (Sirius T3); type: physicochemical; conditions: potentiometric titrations, means ± SD of three titrations

Compound | pKa
O=Cc1c(O)ccc2cc(-c3ccccc3)ccc12 [Compound 13] | 6.76 ± 0.1
C=CCOc1ccc2c(C=O)c(O)ccc2c1 [Compound 9] | 7.34 ± 0.12
O=Cc1c(O)ccc2cc(-c3c[nH]nn3)ccc12 [Compound 14] | 7.38 ± 0.12
O=Cc1c(O)ccc2cc(-c3ccsc3)ccc12 [Compound 15] | 7.75 ± 0.08
O=Cc1c(O)ccc2cc(OC(F)F)ccc12 [Compound 10] | 6.95 ± 0.12
O=Cc1c(O)ccc2cc(Cl)ccc12 [Compound 8] | 7.3 ± 0.06
CC#Cc1ccc2c(C=O)c(O)ccc2c1 [Compound 12] | 7.02 ± 0.08
C=CCc1ccc2c(C=O)c(O)ccc2c1 [Compound 7] | 7.17 ± 0.09
O=Cc1c(O)ccc2ccc(-c3ccco3)cc12 [Compound 6] | 7.5 ± 0.02
